Assay results reported in patent US10551389B2, “Target binding molecules identified by kinetic target-guided synthesis” (UNIVERSITY OF SOUTH FLORIDA, priority 2013, dated 2020).

Key:
Mcl-1 = Mcl-1 (Homo sapiens, UniProt Q07820); experiment: Inhibition of Mcl-1 (disruption of Mcl-1/Bim interaction); type: binding; settings: for % Inhibition (25 μM) Mcl-1 / inhibition at 25 µM: compound at 25 μM; for % Inhibition (50 μM) Mcl-1 / inhibition at 50 µM: compound at 50 μM
Experimental: (§1) In a subsequent study, a structurally diverse library of forty five thio acids and thirty eight sulfonyl azides (identified above) was screened in parallel against Mcl-1 and Bcl-XL using the above mentioned approach. Several potential hit combinations were identified (Table 3). All of these kinetic TGS hit compounds were synthesized (identified above and in Table 3). All the reactions were performed at 20-30 mg scale. The 9-fluorenylmethyl thioester was placed in a 2.0 mL vial and 3.5% DBU/dry DMF solution was added (per 1 μmol of thioester, 4.7 μL, of 3.5% DBU/dry DMF solution was added) and the reaction was stirred for one minute. Then the sulfonylazide (1 eq to thioester) was added to the reaction mixture and immediately bubbling was observed. After the reaction was completed (approximately one minute, monitored by LC-MS) water (200 μL) was added and the pH was adjusted to 7.0 using 1M HCl solution. The reaction mixture was extracted with DCM until there is no product in the aqueous layer (checked by TLC or LC-MS). The product was purified by flash chromatography. Testing of these acylsulfonamides has shown that the hit compounds disrupt the Bcl-XL/Bim or Mcl-1/Bim interaction (Table 3).

Bcl-XL = Bcl-XL (Homo sapiens, UniProt Q07817); experiment: Inhibition of Bcl-XL (disruption of Bcl-XL/Bim interaction); type: binding; settings: for % Inhibition (25 μM) Bcl-XL / inhibition at 25 µM: compound at 25 μM; for % Inhibition (50 μM) Bcl-XL / inhibition at 50 µM: compound at 50 μM
Chain of Bcl-XL (Q07817 whole entry, species assumed): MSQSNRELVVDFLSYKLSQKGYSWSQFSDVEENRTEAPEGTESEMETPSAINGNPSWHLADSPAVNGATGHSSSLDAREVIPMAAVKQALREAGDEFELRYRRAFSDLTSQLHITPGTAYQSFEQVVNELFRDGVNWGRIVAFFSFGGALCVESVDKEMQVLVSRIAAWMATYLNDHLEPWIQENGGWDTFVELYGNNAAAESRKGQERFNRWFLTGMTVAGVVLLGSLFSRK
Experimental: as §1

Chain of Mcl-1 (Q07820 whole entry, species assumed): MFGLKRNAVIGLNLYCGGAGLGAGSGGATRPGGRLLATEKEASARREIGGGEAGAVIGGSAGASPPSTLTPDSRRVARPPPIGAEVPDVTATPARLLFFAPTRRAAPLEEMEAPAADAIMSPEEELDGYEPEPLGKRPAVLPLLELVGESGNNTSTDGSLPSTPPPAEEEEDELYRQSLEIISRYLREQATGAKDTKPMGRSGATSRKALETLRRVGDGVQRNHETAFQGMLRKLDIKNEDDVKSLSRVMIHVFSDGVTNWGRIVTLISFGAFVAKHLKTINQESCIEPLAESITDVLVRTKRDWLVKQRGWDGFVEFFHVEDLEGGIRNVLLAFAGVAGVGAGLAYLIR

% Inhibition (25 μM) Mcl-1 (Mcl-1) [%]	% Inhibition (50 μM) Mcl-1 (Mcl-1) [%]	% Inhibition (25 μM) Bcl-XL (Bcl-XL) [%]	% Inhibition (50 μM) Bcl-XL (Bcl-XL) [%]	IC50 (Mcl-1) [µM]	inhibition at 25 µM (Mcl-1) [%]	IC50 (Bcl-XL) [µM]	inhibition at 25 µM (Bcl-XL) [%]	inhibition at 50 µM (Bcl-XL) [%]	inhibition at 50 µM (Mcl-1) [%]	SMILES
32.4	30.6	<2.0	<2.0							O=C(NS(=O)(=O)c1ccc(CN(CCSc2ccccc2)Cc2ccc3c(c2)OCO3)cc1)c1ccc2c(ccn2Cc2ccc(C(F)(F)F)cc2C(F)(F)F)c1 [SZ31TA30]
73.9	46.7	16.6	2.8							COc1cccc(CN(CCSc2ccccc2)Cc2ccc(S(=O)(=O)NC(=O)c3ccc(-c4ccc(F)cc4)cc3)cc2)c1 [SZ17TA14]
					35.2		14.4	13.9	58.3	COc1cc2c(cc1OC)C(c1ccccc1)N(Cc1ccc(S(=O)(=O)NC(=O)c3ccc(-c4ccc(F)cc4)cc3)cc1)CC2 (stereo not drawn) [SZ8TA14]
					23.5		9.1	< 2		COc1cc2c(cc1OC)C(c1ccccc1)N(Cc1ccc(S(=O)(=O)NC(=O)CCCN3C(=O)C(c4ccc(F)cc4F)=C(c4ccc(F)cc4F)C3=O)cc1)CC2 (stereo not drawn) [SZ8TA20]
					15.7		< 2	< 2	6.9	[N-]=[N+]=NS(=O)(=O)c1ccc(CN(CCSc2ccccc2)Cc2ccc(S(=O)(=O)NC(=O)CCCN3C(=O)C(c4ccc(F)cc4F)=C(c4ccc(F)cc4F)C3=O)cc2)cc1 [SZ9TA20]
				29.3	49		19.1	58	> 99	CN(C)C(=O)c1cccc(-c2ccc(S(=O)(=O)NC(=O)c3ccc(CN4C(=O)C(c5ccc(F)cc5F)=C(c5ccc(F)cc5F)C4=O)cc3)cc2)c1 [SZ34TA42]

Continued, compound first:

SMILES	% Inhibition (25 μM) Mcl-1 (Mcl-1) [%]	% Inhibition (50 μM) Mcl-1 (Mcl-1) [%]	% Inhibition (25 μM) Bcl-XL (Bcl-XL) [%]	% Inhibition (50 μM) Bcl-XL (Bcl-XL) [%]	IC50 (Mcl-1) [µM]	inhibition at 25 µM (Mcl-1) [%]	IC50 (Bcl-XL) [µM]	inhibition at 25 µM (Bcl-XL) [%]	inhibition at 50 µM (Bcl-XL) [%]	inhibition at 50 µM (Mcl-1) [%]
O=C(NS(=O)(=O)CCN(CCSc1ccccc1)Cc1ccc2c(c1)OCO2)c1ccc2c(ccn2Cc2ccc(C(F)(F)F)cc2C(F)(F)F)c1 [SZ28TA30]	42.8	60.5	9.7	<2.0						
NS(=O)(=O)c1ccc(CN(CCSc2ccccc2)Cc2ccc(S(=O)(=O)NC(=O)Cn3c4ccccc4c4ccccc43)cc2)cc1 [SZ10TA15]	35.2	37.4	9.4	<2.0						
O=C(NS(=O)(=O)c1ccc(NCCSc2ccccc2)c([N+](=O)[O-])c1)c1ccc2c(ccn2Cc2ccc(C(F)(F)F)cc2C(F)(F)F)c1 [SZ4TA30]					26.1	68.7	> 50	41.2	42.6	
Cn1cc(C(=O)C2CCCCC2)c2cc(C(=O)NS(=O)(=O)c3ccc(CN(CCSc4ccccc4)Cc4ccc5c(c4)OCO5)cc3)ccc21 [SZ31TA40]	<2.0	<2.0	<2.0	<2.0						
COc1cccc(CN(CCSc2ccccc2)Cc2ccc(S(=O)(=O)NC(=O)c3ccc(CCc4ccccn4)cc3)cc2)c1 [SZ17TA17]	73.9	89.0	68.1	58.4						
[N-]=[N+]=NS(=O)(=O)c1ccc(CN(CCSc2ccccc2)Cc2ccc(S(=O)(=O)NC(=O)c3ccc(CCc4ccccn4)cc3)cc2)cc1 [SZ9TA17]					20.4	69.3		50	63.5	103
Cc1nc(-c2ccccc2)sc1C(=O)NS(=O)(=O)c1ccc(CN(CCSc2ccccc2)Cc2ccc3c(c2)OCO3)cc1 [SZ31TA3]					9.4	69.9		29.6	51.3	100
COc1cccc(CN(CCSc2ccccc2)Cc2ccc(S(=O)(=O)NC(=O)Cn3c4ccccc4c4ccccc43)cc2)c1 [SZ17TA15]						53.3		3	12	
Cn1cc(C(=O)C2CCCCC2)c2cc(C(=O)NS(=O)(=O)c3ccc(-c4ccc(C(C)(C)C)cc4)cc3)ccc21 [SZ11TA40]					21.9	74		30.7	58.7	> 99
